The structures appear in SMILES notation.

Assay [1] relates to Z138 mantle cell lymphoma tumour cell lines. Kind of assay: In vitro cytotoxicity, MTT assay. The following applies: Homo sapiens, Z-138; Z138 cells, exposed to the test compounds for 96 hours. It counts as cell-based. A digest of the protocol:
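MTT viability read-out: after 96 hours of compound treatment, Z138 mantle cell lymphoma cells received MTT for 4 hours, and formazan production was quantified by absorbance at 540 nm.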
A general note: Tetrazolium assays rely on reduction of a dye to a coloured formazan, in cell work by metabolically active cells.

The target in another assay is T1, USP7 (Homo sapiens, UniProt Q93009, C315A).
T1 construct: 0.25 nM His-His-USP7 (aa208-560, |C315A|) was incubated with compound; His-His (N)
T1 sequence (Q93009 208-560 C315A): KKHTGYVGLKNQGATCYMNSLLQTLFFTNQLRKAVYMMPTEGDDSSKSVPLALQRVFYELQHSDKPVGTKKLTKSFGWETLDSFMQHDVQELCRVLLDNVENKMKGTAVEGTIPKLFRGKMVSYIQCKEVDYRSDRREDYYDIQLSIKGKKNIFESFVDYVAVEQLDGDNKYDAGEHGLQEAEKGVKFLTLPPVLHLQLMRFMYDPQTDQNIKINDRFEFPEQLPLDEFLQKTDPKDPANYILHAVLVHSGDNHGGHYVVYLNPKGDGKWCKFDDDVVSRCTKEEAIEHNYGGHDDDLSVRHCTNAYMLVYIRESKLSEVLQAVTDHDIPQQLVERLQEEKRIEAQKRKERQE
The experiment in a line: Inhibition of USP7 by Fluorescence Intensity (FLINT) readings, Ubiquitin-Rhodamine-110 substrate. The class given is biochemical. The following applies: 0.25 nM His-His-USP7 (aa208-560), 60 minutes at 30° C. preincubation; Ki determined from IC50 according to Cer et al. Summed up:
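Kinetic rate of Rhodamine-110 release from ubiquitin substrate (50 nM or 4 μM), read every 3 min for 21 min, after 60 min, 30 °C preincubation of 0.25 nM USP7 catalytic domain C315A with compound. Bicine pH 8.0 buffer, 10% DMSO; 11-point IC50 vs DMSO and no-enzyme controls, converted to Ki.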

One may read the IC50 as the concentration needed to halve the response being measured. A low value points to higher potency. A word on the Ki: it is a dissociation constant, usually derived from enzyme kinetics or from competition with a known ligand. Read a high Ki as lower affinity. The compound `Cc1ccc(-c2c(Cl)sc(C(=O)N3CC[C@@H](C(=O)N4CCC(O)(Cn5cnc(Oc6ccc(F)cc6)c(N)c5=O)CC4)[C@H](c4ccccc4)C3)c2F)cn1` [Example 107] had a concentration for half-maximal inhibition (IC50) in assay [1] of 7.64 nM. On USP7, this compound showed a Ki of 3.3 nM.

Regarding `Nc1c(Oc2ccc(F)cc2)ncn(CC2(O)CCN(C(=O)[C@@H]3CCN(C4(c5ccccc5)COC4)C[C@H]3c3ccccc3)CC2)c1=O` [Example 108, 5-amino-6-(4-fluorophenoxy)-3-[[4-hydroxy-1-((3R,4R)-3-phenyl-1-(3-phenyloxetan-3-yl)piperidine-4-carbonyl]-4-piperidyl]methyl]pyrimidin-4-one], the IC50 in assay [1] was determined as 50 nM. On USP7, the affinity, expressed as Ki, was 63 nM.

As for `Nc1c(Oc2ccc(F)cc2)ncn(CC2(O)CCN(C(=O)[C@@H]3CCN(C4(c5ccccc5F)COC4)C[C@H]3c3ccccc3)CC2)c1=O` [Example 109], in assay [1], the concentration for half-maximal inhibition (IC50) was found to be 11 nM. On USP7, this compound had an inhibition constant Ki of 65 nM.

`Nc1c(Oc2ccccc2)ncn(CC2(O)CCN(C(=O)[C@@H]3CCN(C4(c5ccccc5F)COC4)C[C@H]3c3ccccc3)CC2)c1=O` [Example 114]: half-maximal inhibition in assay [1] (IC50) was put at 22 nM. On USP7, this compound registered an inhibitory constant (Ki) of 66 nM.

`Cc1ccc(-c2ccc(S(=O)(=O)N3CC[C@@H](C(=O)N4CCC(O)(Cn5cnc(Oc6ccc(F)cc6)c(N)c5=O)CC4)[C@H](c4ccccc4)C3)s2)cn1` [Example 117] registered an IC50 in assay [1] of 27.6 nM. Further, at USP7, the inhibition constant (Ki) is 28.6 nM.

For the compound `Cc1ccc(-c2nc(C)c(C(=O)N3CC[C@@H](C(=O)N4CC[C@](O)(Cn5cnc(Oc6ccccc6)c(N)c5=O)C(F)(F)C4)[C@H](c4ccccc4)C3)s2)cn1` [Example 119], the midpoint of inhibition in assay [1], the IC50, lay at 4.3 nM. Further, the Ki at USP7 amounted to 1.53 nM.

For the compound `Cc1cc(C(=O)N2CC[C@@H](C(=O)N3CC[C@](O)(Cn4cnc(Oc5ccc(F)cc5)c(N)c4=O)C(F)(F)C3)[C@H](c3ccccc3)C2)nn1-c1ccccc1` [Example 120, 5-amino-3-({(4S)-3,3-difluoro-4-hydroxy-1-[(3R,4R)-1-(5-methyl-1-phenyl-1H-pyrazole-3-carbonyl)-3phenylpiperidine-4-carbonyl]piperidin-4-yl)methyl)-6(4-fluorophenoxy)pyrimidin-4(3H)-one], in assay [1], 41.3 nM corresponded to half-maximal inhibition (IC50). On USP7, this compound had a Ki of 45.4 nM.

As for `Cc1ccc(-c2cc(F)cc(C(=O)N3CC[C@@H](C(=O)N4CCC(O)(Cn5cnc(Oc6ccc(F)cc6)c(N)c5=O)CC4)[C@H](c4ccccc4)C3)c2)cn1` [Example 121], in assay [1], inhibition was half-maximal at 6.4 nM (IC50). The compound also showed a Ki on USP7 of 4.68 nM.

On to `Nc1c(Oc2ccc(F)cc2)ncn(CC2(O)CCN(C(=O)[C@@H]3CCN(C(=O)c4cncc(C(F)(F)F)c4)C[C@H]3c3ccccc3)CC2)c1=O` [Example 122, 5-amino-6-(4-fluorophenoxy)-3-[(4-hydroxy-1-{(3R,4R)-3-phenyl-1-[5-(trifluoromethyl)pyridine-3-carbonyl]piperidine-4-carbonyl}piperidin-4-yl)methyl]pyrimidin-4(3H)-one], for which, in assay [1], it took 23 nM to reach half-maximal inhibition (IC50). On USP7, this compound returned a Ki of 13.6 nM.

As to `Cn1cnc2ccc(C(=O)N3CC[C@@H](C(=O)N4CCC(O)(Cn5cnc(Oc6ccc(F)cc6)c(N)c5=O)CC4)[C@H](c4ccccc4)C3)cc2c1=O` [Example 123, 6-[(3R,4R)-4-(4-({5-amino-4-(4-fluorophenoxy)-6-oxopyrimidin-1(6H)-yl]methyl)-4-hydroxypiperidine-1-carbonyl)-3-phenylpiperidine-1-carbonyl]-3-methylquinazolin-4(3H)-one], the midpoint of inhibition in assay [1], the IC50, lay at 43.2 nM. On USP7, this compound displayed a Ki of 6.92 nM.

Regarding `Nc1c(Oc2cccc(C(F)(F)F)c2)ncn(CC2(O)CCN(C(=O)[C@@H]3CCN(C(=O)c4sc(-c5ccc(C(F)(F)F)nc5)cc4F)C[C@H]3c3ccccc3)CC2)c1=O` [Example 124, 5-amino-3-[[1-[(3R,4R)-1-[3-fluoro-5-[16-(trifluoromethyl)-3-pyridyl]thiophene-2-carbonyl]-3-phenyl-piperidine-4-carbonyl]-4-hydroxy-4-piperidyl]methyl]-6-[3-(trifluoromethyl)phenoxy]pyrimidin-4-one], the half-inhibitory concentration (IC50) in assay [1] amounted to 31.5 nM. This compound showed a Ki at USP7 of 12 nM.

In assay [1], `Cc1nc(-c2ccc(C(F)(F)F)nc2)sc1C(=O)N1CC[C@@H](C(=O)N2CCC(O)(Cn3cnc(Oc4cccc(C(F)(F)F)c4)c(N)c3=O)CC2)[C@H](c2ccccc2)C1` [Example 125, 5-amino-3-[[4-hydroxy-1-[(3R,4R)-1-[4-methyl-2-[6-(trifluoromethyl)-3-pyridyl]thiazole-5-carbonyl]-3-phenyl-piperidine-4-carbonyl]-4-piperidyl]methyl]-6-[3-(trifluoromethyl)phenoxy]pyrimidin-4-one] gave an IC50 of 26.6 nM. For the same compound, at USP7, the inhibition constant (Ki) stood at 7.98 nM.

As for `Cc1nc(-c2ccc(N(C)C)nc2)sc1C(=O)N1CC[C@@H](C(=O)N2CCC(O)(Cn3cnc(Oc4cccc(C(F)(F)F)c4)c(N)c3=O)CC2)[C@H](c2ccccc2)C1` [Example 126], the half-maximal inhibitory concentration (IC50) in assay [1] stood at 29.5 nM. The same compound registered a Ki at USP7 of 4.44 nM.

In assay [1], `Cn1c(C(=O)N2CC[C@@H](C(=O)N3CCC(O)(Cn4cnc(Oc5ccc(F)cc5)c(N)c4=O)CC3)[C@H](c3ccccc3)C2)c(Cl)c2ccccc21` [Example 127, 5-amino-3-[[1-[(3R,4R)-1-(3-chloro-1-methyl-indole-2-carbonyl)-3-phenyl-piperidine-4-carbonyl]-4-hydroxy-4-piperidyl]methyl]-6-(4-fluorophenoxy)pyrimidin-4-one] had an IC50 of 20.4 nM. For the same compound, the inhibition constant Ki on USP7 worked out at 5.93 nM.

The compound `Nc1c(Oc2ccc(F)cc2)ncn(CC2(O)CCN(C(=O)[C@@H]3CCN(C(=O)Nc4ccccc4C(F)(F)F)C[C@H]3c3ccccc3)CC2)c1=O` [Example 128, (3R,4R)-4-[4-[[5-amino-4-(4-fluorophenoxy)-6-oxo-pyrimidin-1-yl]methyl]-4-hydroxy-piperidine-1-carbonyl]-3-phenyl-N-[2-(trifluoromethyl)phenyl]piperidine-1-carboxamide] gave an IC50 in assay [1] of 75 nM. This compound also displayed a Ki at USP7 of 38.6 nM.

`Nc1c(Oc2ccc(F)cc2)ncn(CC2(O)CCN(C(=O)[C@@H]3CCN(C(=O)c4cc(F)cc(F)c4)C[C@H]3c3ccccc3)CC2)c1=O` [Example 129, 5-amino-3-[[1-[(3R,4R)-1-(3,5-difluorobenzoyl)-3-phenyl-piperidine-4-carbonyl]-4-hydroxy-4-piperidyl]methyl]-6-(4-fluorophenoxy)pyrimidin-4-one] had an IC50 in assay [1] of 5.2 nM. This compound also returned a Ki at USP7 of 2.87 nM.

For `Nc1c(Oc2ccc(F)cc2)ncn(CC2(O)CCN(C(=O)[C@@H]3CCN(C(=O)c4cc(Cl)cc(Cl)c4)C[C@H]3c3ccccc3)CC2)c1=O` [Example 130], the IC50 in assay [1] is 7.5 nM. The Ki at USP7 stood at 1.83 nM.

In the case of `Cc1ccc(-c2nc(C)c(C(=O)N3CC[C@@H](C(=O)N4CCC(O)(Cn5cnc(Oc6ccc(CN)cc6)c(N)c5=O)CC4)[C@H](c4ccccc4)C3)s2)cn1` [Example 131], the concentration for half-maximal inhibition (IC50) in assay [1] worked out at 5.3 nM. Further, the Ki at USP7 came to 0.064 nM.

As to `Nc1c(Oc2ccc(F)cc2)ncn(CC2(O)CCN(C(=O)[C@@H]3CCN(C(=O)C4(c5ccccc5)CC4)C[C@H]3c3ccccc3)CC2)c1=O` [Example 132], the 50% inhibitory concentration (IC50) in assay [1] came out at 47.8 nM. Also, the affinity at USP7 corresponds to a Ki of 35.4 nM.

For the compound `Nc1c(Oc2ccc(F)cc2)ncn(CC2(O)CCN(C(=O)[C@@H]3CCN(C(=O)c4cncc(Cl)c4)C[C@H]3c3ccccc3)CC2)c1=O` [Example 133, 5-amino-3-[[1-[(3R,4R)-1-(5-chloropyridine-3-carbonyl)-3-phenyl-piperidine-4-carbonyl]-4-hydroxy-4-piperidyl]methyl]-6-(4-fluorophenoxy)pyrimidin-4-one], the IC50 in assay [1] is 9.8 nM. Further, the Ki at USP7 came to 1.52 nM.

`Nc1c(Oc2ccc(F)cc2)ncn(CC2(O)CCN(C(=O)[C@@H]3CCN(C(=O)c4cncc(F)c4)C[C@H]3c3ccccc3)CC2)c1=O` [Example 134, 5-amino-6-(4-fluorophenoxy)-3-[[1-[(3R,4R)-1-(5-fluoropyridine-3-carbonyl)-3-phenyl-piperidine-4-carbonyl]-4-hydroxy-4-piperidyl]methyl]pyrimidin-4-one] returned a concentration for half-maximal inhibition (IC50) in assay [1] of 17 nM. On USP7, this compound registered an inhibitory constant (Ki) of 3.7 nM.

On to `Cc1ccccc1C1(N2CC[C@@H](C(=O)N3CCC(O)(Cn4cnc(Oc5ccc(F)cc5)c(N)c4=O)CC3)[C@H](c3ccccc3)C2)COC1` [Example 138], for which the concentration for half-maximal inhibition (IC50) in assay [1] turned out to be 24 nM. This compound had a Ki at USP7 of 45 nM.

In assay [1], `COc1ccccc1C1(N2CC[C@@H](C(=O)N3CCC(O)(Cn4cnc(Oc5ccc(F)cc5)c(N)c4=O)CC3)[C@H](c3ccccc3)C2)COC1` [Example 139, 5-amino-6-(4-fluorophenoxy)-3-[[4-hydroxy-1-[(3R,4R)-1-[3-(2-methoxyphenyl)oxetan-3-yl]-3-phenyl-piperidine-4-carbonyl]-4-piperidyl]methyl]pyrimidin-4-one] returned a 50% inhibitory concentration (IC50) of 24.6 nM. The same compound came in with a Ki on USP7 of 19 nM.

In assay [1], `Nc1c(Oc2ccc(F)cc2)ncn(CC2(O)CCN(C(=O)[C@@H]3CCN(C4(c5ccccc5Cl)COC4)C[C@H]3c3ccccc3)CC2)c1=O` [Example 140, 5-amino-3-[[1-((3R,4R)-1-[3-(2-chlorophenyl)oxetan-3-yl]-3-phenyl-piperidine-4-carbonyl]-4-hydroxy-4-piperidyl]methyl]-6-(4-fluorophenoxy)pyrimidin-4-one] registered an IC50 of 20 nM. Further, the Ki at USP7 worked out at 12 nM.

Source of the values: patent US20210355106A1, “NEW AMINO-PYRIMIDONYL-PIPERIDINYL DERIVATIVES, A PROCESS FOR THEIR PREPARATION AND PHARMACEUTICAL COMPOSITIONS CONTAINING THEM” (LES LABORATOIRES SERVIER, priority 2018, published 2021).
